Measured values reported in the Kinase Knowledgebase extract (Sharma et al. 2016).

These compounds were tested against MAPK14 (human) (UniProt Q16539) (assay: Inhibition of MAPK14 Kinase Activity). Conditions: not given.
MAPK14 (human), sequence (Q16539 whole entry, looked up): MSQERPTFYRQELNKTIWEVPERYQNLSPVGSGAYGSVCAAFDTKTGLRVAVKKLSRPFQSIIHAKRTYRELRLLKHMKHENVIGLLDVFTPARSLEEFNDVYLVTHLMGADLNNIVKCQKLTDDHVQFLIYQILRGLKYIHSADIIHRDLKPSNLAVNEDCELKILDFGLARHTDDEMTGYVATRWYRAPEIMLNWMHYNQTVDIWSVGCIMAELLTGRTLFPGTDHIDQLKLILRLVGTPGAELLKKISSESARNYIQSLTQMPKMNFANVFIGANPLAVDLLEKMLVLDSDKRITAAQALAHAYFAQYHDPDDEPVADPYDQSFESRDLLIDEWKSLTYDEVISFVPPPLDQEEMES

| SMILES | IC50 [µM] |
| --- | --- |
| CC(C)(C)c1cc(C(=O)N2CCNC(=O)C2(C)C)c(NC(=O)Nc2ccc(C#N)c(Cl)c2Cl)s1 | < 5 |
| COC(=O)CN1CCN(C(=O)c2cc(C(C)(C)C)sc2NC(=O)Nc2cccc(Cl)c2Cl)CC1 | < 5 |
| CC(C)(C)c1cc(C(=O)N2CCN(CC(N)=O)C(=O)C2(C)C)c(NC(=O)Nc2cccc(Cl)c2Cl)s1 | < 5 |
| CN(C)CCN1CCN(C(=O)c2cc(C(C)(C)C)sc2NC(=O)Nc2ccc(F)c(Cl)c2Cl)C(C)(C)C1=O | < 5 |
| CONC(=O)CN1CCN(C(=O)c2cc(C(C)(C)C)sc2NC(=O)Nc2cccc(Cl)c2Cl)C(C)(C)C1=O | < 5 |
| CC(C)(C)c1nc(C(=O)N2CCNC(=O)C2)c(NC(=O)Nc2cccc(Cl)c2Cl)s1 | < 5 |
| CC(C)(C)c1cc(C(=O)N2CCNC(=O)C2(C)C)c(NC(=O)Nc2c(Cl)cncc2Cl)s1 | < 5 |
| COc1ccccc1NC(=O)Nc1sc(C(C)(C)C)cc1C(=O)N1CCNC(=O)CC1 | < 5 |
| CC(C)(C)c1cc(NC(=O)Nc2ccc(F)c(Cl)c2Cl)c(C(=O)N2CCNC(=O)C2(C)CCO)s1 (centres undefined) | < 5 |
| CC(C)(C)c1cc(C(=O)N2CCN(CCC(=O)N(CCO)CCO)C(=O)C2(C)C)c(NC(=O)Nc2cccc(Cl)c2Cl)s1 | < 5 |
| CCC1(C)C(=O)NCCN1C(=O)c1cc(C(C)(C)C)sc1NC(=O)Nc1cccc(Cl)c1Cl (centres undefined) | < 5 |
| CC(C)(C)c1cc(C(=O)N2CCN(CCN3CCOCC3)C(=O)C2(C)C)c(NC(=O)Nc2cccc(Cl)c2Cl)s1 | < 5 |
| CC(C)(C)c1cc(NC(=O)Nc2cccc(Cl)c2Cl)c(C(=O)N2CCNC(=O)CC2)[nH]1 | < 5 |
| CC(C)(C)OC(=O)N1CCN(C(=O)c2cc(C(C)(C)C)sc2NC(=O)Nc2cccc(Cl)c2Cl)CC1(C)C | < 5 |
| CC(C)(C)c1nc(C(=O)N2CCNS(=O)(=O)CC2)c(NC(=O)Nc2cccc(Cl)c2Cl)s1 | < 5 |
| CC(C)(C)c1cc(C(=O)N2CCNC(=O)CC2)c(NC(=O)Nc2cccc(Cl)c2Cl)[nH]1 | < 5 |
| Cc1cccc(NC(=O)Nc2sc(C(C)(C)C)cc2C(=O)N2CCNC(=O)C2(C)C)c1Cl | < 5 |
| CN(C)CCN1CCN(C(=O)c2cc(C(C)(C)C)sc2NC(=O)Nc2ccccc2C(C)(C)C)CCC1=O | < 5 |
| Cc1cccc(Cl)c1NC(=O)Nc1cc(C(C)(C)C)sc1C(=O)N1CCNC(=O)C1(C)C | < 5 |
| COC(=O)CC1(C)C(=O)NCCN1C(=O)c1cc(C(C)(C)C)sc1NC(=O)Nc1cccc(Cl)c1Cl (centres undefined) | < 5 |
| CC(C)(C)c1cc(C(=O)N2CCNC(=O)[C@@H]2CCc2ccccc2)c(NC(=O)Nc2cccc(Cl)c2Cl)s1 | < 5 |
| CCC1(C)C(=O)N(CC(=O)NCCN(C)C)CCN1C(=O)c1cc(C(C)(C)C)sc1NC(=O)Nc1ccc(F)cc1Cl (centres undefined) | < 5 |
| CC1CC(=O)NCCN1C(=O)c1cc(C(C)(C)C)sc1NC(=O)Nc1cccc(Cl)c1Cl (centres undefined) | < 5 |
| CC(C)(C)c1cc(C(=O)N2CCNC(=O)CC2)c(NC(=O)Nc2ccc(Cl)cc2Cl)s1 | < 5 |

| SMILES | IC50 [µM] |
| --- | --- |
| CCc1ccccc1NC(=O)Nc1sc(C(C)(C)C)cc1C(=O)N1CCC(=O)N(CCN(C)C)CC1 | < 5 |
| CC(C)(C)c1cc(C(=O)N2CCNC(=O)C2(C)C)c(NC(=O)Nc2ccccc2C(C)(C)C)s1 | < 5 |
| CN(C)CCNC(=O)CN1CCN(C(=O)c2cc(C(C)(C)C)sc2NC(=O)Nc2ccc(F)c(F)c2Cl)CCC1=O | < 5 |
| CC(C)(C)c1cc(C(=O)N2CCNC(=O)CC2)c(NC(=O)Nc2ccccc2C(C)(C)C)s1 | < 5 |
| CC(=O)N1CCCN(C(=O)c2cc(C(C)(C)C)sc2NC(=O)Nc2cccc(Cl)c2Cl)CC1 | < 5 |
| CCC1(C)C(=O)N(CCN(C)C)CCN1C(=O)c1cc(C(C)(C)C)sc1NC(=O)Nc1ccc(F)c(Cl)c1Cl (centres undefined) | < 5 |
| CC(C)(C)c1cc(C(=O)N2CCC(=O)N(CCN)CC2)c(NC(=O)Nc2cccc(Cl)c2Cl)s1 | < 5 |
| CC1(C)CN(C(=O)c2cc(C(C)(C)C)sc2NC(=O)Nc2cccc(Cl)c2Cl)CCNC1=O | < 5 |
| CN(C)CCN1CCN(C(=O)c2sc(C(C)(C)C)cc2NC(=O)Nc2cccc(Cl)c2Cl)C(C)(C)C1=O | < 5 |
| CC(C)(C)c1cc(C(=O)N2CCN(CCC(=O)O)C(=O)C2(C)C)c(NC(=O)Nc2cccc(Cl)c2Cl)s1 | < 5 |
| CC(C)(C)c1cc(C(=O)N2CCNC(=O)C2(C)CCO)c(NC(=O)Nc2ccc(F)c(Cl)c2Cl)s1 (centres undefined) | < 5 |
| CC(C)(C)c1cc(C(=O)N2CCNC(=O)C2(C)C)c(NC(=O)Nc2cccc(Cl)c2Cl)[nH]1 | < 5 |
| CN(C)CCNC(=O)CN1CCN(C(=O)c2cc(C(C)(C)C)sc2NC(=O)Nc2cccc(Cl)c2Cl)C(C)(C)C1=O | < 5 |
| CC(C)(C)c1cc(C(=O)N2CCNC(=O)CC2)c(NC(=O)Nc2c(Cl)cncc2Cl)s1 | < 5 |
| CC(C)(C)c1cc(C(=O)N2CCN(CC(=O)NCC(F)(F)F)C(=O)C2(C)C)c(NC(=O)Nc2cccc(Cl)c2Cl)s1 | < 5 |
| CC(C)(C)c1cc(NC(=O)Nc2cccc(Cl)c2Cl)c(C(=O)N2CCNC(=O)C2(C)C)s1 | < 5 |
| CCC1(C)C(=O)NCCN1C(=O)c1cc(C(C)(C)C)sc1NC(=O)Nc1ccc(F)cc1Cl (centres undefined) | < 5 |
| COc1ccc(CCC(=O)N2CCN(C(=O)c3cc(C(C)(C)C)sc3NC(=O)Nc3cccc(Cl)c3Cl)CC2)cc1 | < 5 |
| COC(=O)CN1CCN(C(=O)c2cc(C(C)(C)C)sc2NC(=O)Nc2cccc(Cl)c2Cl)C(C)(C)C1=O | < 5 |
| CN(C)CCN1CCN(C(=O)c2cc(C(C)(C)C)sc2NC(=O)Nc2ccccc2C(F)(F)F)C(C)(C)C1=O | < 5 |
| COc1c(Cl)cccc1NC(=O)Nc1sc(C(C)(C)C)cc1C(=O)N1CCNC(=O)C1(C)CCO (centres undefined) | < 5 |
| CC(C)(C)c1cc(C(=O)N2CCNC(=O)CC2)c(NC(=O)Nc2ccccc2Br)s1 | < 5 |
| CN(C)CCNC(=O)CN1CCN(C(=O)c2cc(C(C)(C)C)sc2NC(=O)Nc2cccc(Cl)c2Cl)CC1 | < 5 |

Now from value to compound:

| IC50 [µM] | SMILES |
| --- | --- |
| < 5 | CC1(C)C(=O)NCCN1C(=O)c1oc(C(F)(F)F)cc1NC(=O)Nc1ccc(F)c(Cl)c1Cl |
| < 5 | CC(C)(C)c1cc(NC(=O)Nc2cccc(Cl)c2Cl)c(C(=O)N2CCNC(=O)C2(C)C)o1 |
| < 5 | Cc1noc(CN2CCN(C(=O)c3cc(C(C)(C)C)sc3NC(=O)Nc3ccc(F)c(Cl)c3Cl)C(C)(C)C2=O)n1 |
| < 5 | CN(C)C(=O)CN1CCN(C(=O)c2cc(C(C)(C)C)sc2NC(=O)Nc2cccc(Cl)c2Cl)C(C)(C)C1=O |
| < 5 | CN(C)CCN1CCN(C(=O)c2cc(C(C)(C)C)sc2NC(=O)Nc2cccc(Cl)c2Cl)C(C)(C)C1=O |
| < 5 | CCN(CC)CCNC(=O)CN1CCN(C(=O)c2cc(C(C)(C)C)sc2NC(=O)Nc2cccc(Cl)c2Cl)C(C)(C)C1=O |
| < 5 | CC(C)(C)c1cc(C(=O)N2CCNC(=O)CC2)c(NC(=O)Nc2cccc3c2OCO3)s1 |
| < 5 | CC(C)(C)c1cc(C(=O)N2CCNC(=O)C2)c(NC(=O)Nc2ccc(F)c(Cl)c2Cl)s1 |
| < 5 | COC(=O)CCN1CCN(C(=O)c2cc(C(C)(C)C)sc2NC(=O)Nc2cccc(Cl)c2Cl)C(C)(C)C1=O |
| < 5 | COC(=O)CC1(C)C(=O)NCCN1C(=O)c1cc(C(C)(C)C)sc1NC(=O)Nc1ccc(F)c(Cl)c1Cl (centres undefined) |
| < 5 | Cc1ccccc1NC(=O)Nc1sc(C(C)(C)C)cc1C(=O)N1CCC(=O)N(CCN(C)C)CC1 |
| < 5 | CN1CCN(C(=O)c2oc(C(C)(C)C)cc2NC(=O)Nc2cccc(Cl)c2Cl)CCS1(=O)=O |
| < 5 | CC(C)(C)c1cc(NC(=O)Nc2ccc(F)c(Cl)c2Cl)c(C(=O)N2CCNC(=O)C2(C)C)[nH]1 |
| < 5 | CC(C)(C)c1cc(C(=O)N2CCNC(=O)C2(C)C)c(NC(=O)Nc2ccncc2Cl)s1 |
| < 5 | CCC1(C)C(=O)N(CC(=O)N(C)OC)CCN1C(=O)c1cc(C(C)(C)C)sc1NC(=O)Nc1cccc(Cl)c1Cl (centres undefined) |
| < 5 | CC(C)(C)c1cc(C(=O)N2CCNCC2)c(NC(=O)Nc2cccc(Cl)c2Cl)s1 |
| < 5 | CCC1(C)C(=O)NCCN1C(=O)c1cc(C(C)(C)C)sc1NC(=O)Nc1ccc(F)c(Cl)c1Cl (centres undefined) |
| < 5 | CC(C)(C)c1cc(C(=O)N2CCNC(=O)CC2)c(NC(=O)Nc2cc(F)cc(F)c2)s1 |
| < 5 | CC1(C)OCC(CNC(=O)CN2CCN(C(=O)c3cc(C(C)(C)C)sc3NC(=O)Nc3cccc(Cl)c3Cl)C(C)(C)C2=O)O1 (centres undefined) |
| < 5 | CN(C)CCN1CCN(C(=O)c2sc(C(C)(C)C)cc2NC(=O)Nc2ccc(F)c(Cl)c2Cl)CCC1=O |
| < 5 | CNC(=O)CN1CCN(C(=O)c2cc(C(C)(C)C)sc2NC(=O)Nc2cccc(Cl)c2Cl)C(C)(C)C1=O |
| < 5 | CON(C)C(=O)CN1CCN(C(=O)c2cc(C(C)(C)C)sc2NC(=O)Nc2ccc(F)cc2Cl)CCC1=O |
| < 5 | COC(=O)CC1(C)C(=O)NCCN1C(=O)c1sc(C(C)(C)C)cc1NC(=O)Nc1ccc(F)c(F)c1Cl (centres undefined) |
| < 5 | CN1CCN(C(=O)c2cc(C(C)(C)C)n(C)c2NC(=O)Nc2cccc(Cl)c2Cl)C(C)(C)C1=O |
| < 5 | CN1CCN(C(=O)c2cc(C(C)(C)C)sc2NC(=O)Nc2cccc(Cl)c2Cl)C(C)(C)C1=O |
| < 5 | CC(C)(C)c1cc(C(=O)N2CCNC(=O)CC2)c(NC(=O)Nc2ccc(F)cc2Cl)s1 |
| < 5 | CN(C)CCN1CCN(C(=O)c2cc(C(C)(C)C)sc2NC(=O)Nc2ccc(F)c(F)c2Cl)C(C)(C)C1=O |

Same assay, conditions: concentration not given here

| inhibition [%] | SMILES |
| --- | --- |
| 51 to 75 | CC(C)(C)c1cc(C(=O)N2CCNC(=O)CC2)c(NC(=O)Nc2ccc(CN)cc2)s1 |
| 76 to 100 | CC1(C)OCC(CN2CCN(C(=O)c3cc(C(C)(C)C)sc3NC(=O)Nc3cccc(Cl)c3Cl)CCC2=O)O1 (centres undefined) |
| 76 to 100 | CC(C)(C)c1cc(C(=O)N2CCNS(=O)(=O)CC2)c(NC(=O)Nc2cc(Cl)cc(Cl)c2)s1 |
| 76 to 100 | COCOCCN1CCN(C(=O)c2cc(C(C)(C)C)sc2NC(=O)Nc2cccc(Cl)c2Cl)CCC1=O |
| 76 to 100 | CC(C)(C)c1cc(C(=O)N2CCNC(=O)CC2)c(NC(=O)Nc2ccc3ocnc3c2)s1 |
| 26 to 50 | CC(C)(C)c1cc(C(=O)N2CCNC(=O)CC2)c(NC(=O)Nc2cnc(O)c3ccccc23)s1 |
| 76 to 100 | CC1C(=O)NCCN1C(=O)c1cc(C(C)(C)C)sc1NC(=O)Nc1ccc2ccccc2c1 (centres undefined) |
| 76 to 100 | CN(C)CCN1CCN(C(=O)c2cc(C(C)(C)C)sc2NC(=O)Nc2cccc(Cl)c2Cl)CCC1=O |
| 26 to 50 | Cn1ccc(NC(=O)Nc2sc(C(C)(C)C)cc2C(=O)N2CCNS(=O)(=O)CC2)n1 |
| 76 to 100 | COC(=O)CC1C(=O)NCCN1C(=O)c1cc(C(C)(C)C)sc1NC(=O)Nc1ccc2ccccc2c1 (centres undefined) |
